Test system: Javanese medaka (Oryzias javanicus) livers
Assay type: in vivo
Conditions: 76 μg/L, 48 hr, liver
Experimental: Javanese medaka was cultured in natural seawater filtered through three types of filters (10, 10 and 1 μm). Water temperature was fixed at 25° C. with underwater heater, and Artemia salina nauplii were fed once a day.
To 3 L beaker with 2 L filtered seawater therein, 10 male Javanese medaka bred in culture water tank were transported each time, and acclimated for 24 hr. […] Additionally, five Javanese medaka of Example <1-1> were exposed to BPA (76 μg/L) for 48 hr. […] The Javanese medaka was transported to ice water, one at a time, which momentarily stunned it, followed by beheading and evisceration and liver removal.
To the Javanese medaka livers of BPA exposed group (48 hr) produced from Example <1-2>, and of control group without exposure, 1 ml of TRI Reagent solution (Molecular Research Center Inc, Cincinnati, Ohio, USA) was added, homogenized with glass homogenizer, and left at room temperature for 5 min. Next, chloroform (200 μl) was added and mixed, left at room temperature for 10 min. After centrifugation for 15 min (12,000×g, 4° C.), supernatant was obtained, to which isopropanol (500 μl) was added and left at room temperature for 5 min. After centrifugation for about 20 min (12,000×g, 4° C.), solution was removed, thus leaving precipitate. To the precipitate, 70% ethanol solution (50 μl) was added and after centrifugation for 5 min, ethanol solution was removed, and the precipitate RNA was dried. After drying, the product was dissolved in appropriate amount of DEPC (diethylpyrocarbonate)-treated water.
The entire RNA of the distilled exposed group and non-exposed group were labeled with Cy3 and Cy5 as follows, using Agilent's Low RNA Input Linear Amplification Kit Plus (Agilent Technologies, USA). To be specific, RNA (1 μg) was mixed with dT-promoter primer and MMLV-Reverse transcriptase. After reverse transcription at 40° C. for 2 hr, T7 polymerase was added, and linear amplification was done at 40° C. for 2 hr. After the amplification process explained above, the samples of experimental and control groups were labeled with Cy3-CTP and Cy5-CTP, respectively.
Fluorescent-labeled cDNA sample was purified with Qiagen PCR purification kit, and eluted with distilled water. The purified, fluorescent-labeled cDNA sample was added to hybridization buffer (3×SSC, 0.3% SDS, 50% formamide, 20 μg Cot-1 DNA, 20 μg yeast tRNA), and concentrated with microcon YM-30. After hybridization, the hybridized compound was heated at 95° C. for 3 min for denaturization, and the temperature of the heated, hybridized compound was decreased by centrifugation for 30 sec at 12,000 g. The produced Javanese medaka cDNA microarray was covered with coverslip, and the denaturized, hybridized compound was pipetted. The microarray was put into GT-Hyb chamber for reaction to occur at 65° C. for 16 hr. After hybridization, the microarray was taken out of the chamber, underwent cleansing process as explained below, rotated and dried, and stored in a dark room until scanning. The Javanese medaka microarray was then scanned with Axon GenePix 4000B scanner (Axon Instrument, USA). On the GenePix Pro 6.0 program, dots from the scanned image were gridded using gridding file, and quantified to produce GPR file including analysis on cy5/Cy3 magnitudes and ratios.
Based on the GPR file obtained with the GenePix Pro Program, the following analysis was made using analysis program, i.e., GeneSpring 7.3.1 (Agilent Technologies, USA). Normalization: by LOWESS (locally weighted regression scatterplot smoothing). Reliable gene): significant genes were obtained by flagging out dots whose sums of medial values were less than the background, or dots whose standard deviations of pixel values are not significant. Significant genes: dots whose normalized ratio is at […] higher interval, were screened. […]

[1] = Down-regulation, + = increased expression level
[2] = Up-regulation, − = decreased expression level

## CC(C)(c1ccc(O)cc1)c1ccc(O)cc1 [BPA, Bisphenol A]
[1]
  Fold difference, 40S ribosomal protein S19 (No. 115): +2.00 fold
  Fold difference, ATP citrate lyase (ACLY), transcript variant 2 (No. 154): +2.84 fold
  Fold difference, ATP-binding cassette transporter sub-family G member 2b (No. 146): +2.59 fold
  Fold difference, GTP cyclohydrolase 1 precursor (No. 148): +2.60 fold
  Fold difference, Iron-responsive element-binding protein 1 (No. 141): +2.25 fold
  Fold difference, Isocitrate dehydrogenase (No. 153): +2.72 fold
  Fold difference, NADH dehydrogenase subunit 4 (No. 126): +2.08 fold
  Fold difference, Nedd4 family interacting protein 2 (No. 132): +2.13 fold
  Fold difference, Restin (Cytoplasmic linker protein-170 alpha-2) (No. 133): +2.14 fold
  Fold difference, Ribosomal protein S14, transcript variant 4 (No. 158): +3.11 fold
  Fold difference, TBT-binding protein (No. 120): +2.02 fold
  Fold difference, Thyroid hormone receptor-associated protein complex 150 kDa component (No. 149): +2.62 fold
  Fold difference, Transforming growth factor-beta-induced protein ig-h3 (No. 114): +2.00 fold
  Fold difference, Translation initiation factor eIF-2B subunit epsilon (No. 157): +3.00 fold
  Fold difference, Transmembrane protein 85 (No. 159): +5.22 fold
  Fold difference, adult alpha-type globin (No. 147): +2.59 fold
  Fold difference, alcohol dehydrogenase Class VI (ADH8) (No. 116): +2.01 fold
  Fold difference, alpha-2-macroglobulin (No. 119): +2.01 fold
  Fold difference, alpha-2-macroglobulin-2 (No. 123): +2.03 fold
  Fold difference, apolipoprotein A-IV4 (No. 156): +2.94 fold
  Fold difference, arginyl-tRNA synthetase (No. 145): +2.52 fold
  Fold difference, calreticulin (No. 142): +2.25 fold
  Fold difference, carboxyl ester lipase, tandem duplicate 2 (No. 118): +2.01 fold
  Fold difference, catalase (No. 135): +2.16 fold
  Fold difference, choriogenin L (No. 130): +2.12 fold
  Fold difference, chymotrypsinogen 2-like protein (No. 140): +2.22 fold
  Fold difference, complement component C9 (No. 122): +2.03 fold
  Fold difference, complement factor B/C2-B (No. 131): +2.12 fold
  Fold difference, complement regulatory plasma protein (No. 128): +2.11 fold
  Fold difference, cyclin B2 (No. 152): +2.66 fold
  Fold difference, cyclin Y-like 1 (No. 127): +2.09 fold
  Fold difference, decorin mRNA (No. 155): +2.87 fold
  Fold difference, delta 6-desaturase (No. 143): +2.39 fold
  Fold difference, glutathione S transferase Rho-class (No. 162): +6.90 fold
  Fold difference, heat shock protein 84b (No. 160): +5.53 fold
  Fold difference, hepcidin-like precursor (No. 125): +2.07 fold
  Fold difference, hypoxanthine phosphoribosyltransferase 1 (No. 138): +2.17 fold
  Fold difference, kelch domain containing 10 (No. 144): +2.42 fold
  Fold difference, kelch-like ECH-associated protein 1b (No. 124): +2.06 fold
  Fold difference, keratin 15 (No. 121): +2.02 fold
  Fold difference, malate dehydrogenase (No. 117): +2.01 fold
  Fold difference, ornithine decarboxylase antizyme large isoform ORF1 (No. 134): +2.15 fold
  Fold difference, protein kinase C and casein kinase substrate in neurons 2 (No. 129): +2.12 fold
  Fold difference, protein phosphatase 2A regulatory subunit B′ delta isoform (No. 151): +2.63 fold
  Fold difference, ring finger protein 141 (No. 136): +2.16 fold
  Fold difference, sex hormone-binding globulin (No. 150): +2.62 fold
  Fold difference, warm-temperature-acclimation-related-65 kDa-protein (C79) (No. 161): +5.88 fold
[2]
  Fold difference, 5,10-methylenetetrahydrofolate reductase (NADPH)-like mRNA (No. 106): −2.06 fold
  Fold difference, 40S ribosomal protein S18 (No. 89): −2.43 fold
  Fold difference, 60S acidic ribosomal protein P1 (No. 100): −2.13 fold
  Fold difference, ATPase, H+ transporting, lysosomal, V1 subunit E isoform 1 (No. 109): −2.04 fold
  Fold difference, DEAD-box RNA-dependent helicase p68 mRNA (No. 113): −2.01 fold
  Fold difference, Glycerol-3-phosphate dehydrogenase (No. 80): −3.03 fold
  Fold difference, HSPC038 protein (No. 79): −3.05 fold
  Fold difference, MHC Class I Region (No. 74): −3.70 fold
  Fold difference, Putative transmembrane 4 superfamily member protein (No. 111): −2.02 fold
  Fold difference, TRAF-binding protein (No. 78): −3.17 fold
  Fold difference, Transcription initiation factor IIA gamma chain (No. 108): −2.06 fold
  Fold difference, Uridine phosphorylase 1 (No. 99): −2.16 fold
  Fold difference, bromodomain containing 2 (RING3) gene (No. 92): −2.35 fold
  Fold difference, c-type lysozyme mRNA (No. 98): −2.18 fold
  Fold difference, carnitine O-acetyltransferase precursor (No. 83): −2.78 fold
  Fold difference, cathepsin F (No. 105): −2.08 fold
  Fold difference, choriogenin Hminor (No. 102): −2.09 fold
  Fold difference, cyclin G2 (No. 95): −2.27 fold
  Fold difference, cysteine dioxygenase (No. 94): −2.32 fold
  Fold difference, estrogen receptor beta 2 (No. 91): −2.37 fold
  Fold difference, eukaryotic peptide chain release factor GTP-binding subunit (No. 88): −2.45 fold
  Fold difference, glucose-regulated protein 94 (No. 104): −2.09 fold
  Fold difference, glutathione S-transferase (No. 93): −2.33 fold
  Fold difference, heart-type fatty acid-binding protein (No. 101): −2.12 fold
  Fold difference, leukocyte elastase inhibitor (No. 110): −2.04 fold
  Fold difference, mitogen-activated protein kinase 1 (No. 107): −2.06 fold
  Fold difference, mitogen-activated protein kinase (p38) (No. 112): −2.02 fold
  Fold difference, muscleblind mRNA (No. 85): −2.53 fold
  Fold difference, phosphoenolpyruvate carboxykinase (No. 86): −2.51 fold
  Fold difference, proline rich 6 (No. 71): −5.99 fold
  Fold difference, proteasome subunit, beta type 8 (No. 81): −2.96 fold
  Fold difference, protein kinase C and casein kinase substrate in neurons 1 (No. 96): −2.22 fold
  Fold difference, protein phosphatase 2 regulatory subunit B beta (No. 87): −2.50 fold
  Fold difference, protein tyrosine phosphatase-like, member b (No. 77): −3.23 fold
  Fold difference, retinoid X receptor beta (RXRB) gene (No. 76): −3.42 fold
  Fold difference, ribosomal protein L13 (No. 103): −2.09 fold
  Fold difference, septin 7b (sept7b), transcript variant 1 (No. 97): −2.20 fold
  Fold difference, telomerase reverse transcriptase gene (No. 72): −4.31 fold
  Fold difference, trypsinogen (No. 82): −2.88 fold
  Fold difference, trypsinogen (No. 90): −2.42 fold
  Fold difference, tubulin, beta 5 (No. 84): −2.56 fold
  Fold difference, uridine phosphorylase 2 (No. 73): −3.77 fold
  Fold difference, vitellogenin II (No. 75): −3.69 fold

From patent US20140315738A1, “MARINE MEDAKA GENES RESPONDING TO THE EXPOSURE OF ENDOCRINE-DISRUPTING CHEMICALS, AND METHOD FOR DIAGNOSING AN AQUATIC ECO-SYSTEM CONTAMINATION USING SAME” (priority 2011, published 2014)
